Our source for the IC50 values is patent US9676714B2, “Sulfonylindole derivatives and method for preparing the same” (Daewoong Pharmaceutical Co., Ltd., priority 2013, dated 2017).

This assay has as its target T1, proton pump (H+/K+-ATPase) (Sus scrofa, UniProt P19156).
T1 construct: Gastric vesicles were prepared from hog stomach via centrifugal separation; from tissue; host or cells: hog stomach (gastric vesicles, method of Rabon et al. 1988)
The experiment in a line: Measurement of inhibitory effects on proton pump (H+/K+-ATPase) activities. The class given is biochemical. To be noted: hog gastric vesicles, K+-specific H+/K+-ATPase activity, Tris-HCl buffer pH 7.4, 37° C. for 40 minutes, malachite green Pi readout. In outline: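 Hog gastric vesicles in 60 mmol/l Tris-HCl pH 7.4 with 0.5% DMSO were treated with compounds at room temperature; reaction was started with 10 μl of 10 mmol/l ATP stock. Released Pi was read at 570 nm, K+-specific activity taken as the ±K+ difference. IC50 from 4-parameter logistic fit.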

Structures can show the parent of a compound that is named as a salt.

T1 sequence (P19156 whole entry): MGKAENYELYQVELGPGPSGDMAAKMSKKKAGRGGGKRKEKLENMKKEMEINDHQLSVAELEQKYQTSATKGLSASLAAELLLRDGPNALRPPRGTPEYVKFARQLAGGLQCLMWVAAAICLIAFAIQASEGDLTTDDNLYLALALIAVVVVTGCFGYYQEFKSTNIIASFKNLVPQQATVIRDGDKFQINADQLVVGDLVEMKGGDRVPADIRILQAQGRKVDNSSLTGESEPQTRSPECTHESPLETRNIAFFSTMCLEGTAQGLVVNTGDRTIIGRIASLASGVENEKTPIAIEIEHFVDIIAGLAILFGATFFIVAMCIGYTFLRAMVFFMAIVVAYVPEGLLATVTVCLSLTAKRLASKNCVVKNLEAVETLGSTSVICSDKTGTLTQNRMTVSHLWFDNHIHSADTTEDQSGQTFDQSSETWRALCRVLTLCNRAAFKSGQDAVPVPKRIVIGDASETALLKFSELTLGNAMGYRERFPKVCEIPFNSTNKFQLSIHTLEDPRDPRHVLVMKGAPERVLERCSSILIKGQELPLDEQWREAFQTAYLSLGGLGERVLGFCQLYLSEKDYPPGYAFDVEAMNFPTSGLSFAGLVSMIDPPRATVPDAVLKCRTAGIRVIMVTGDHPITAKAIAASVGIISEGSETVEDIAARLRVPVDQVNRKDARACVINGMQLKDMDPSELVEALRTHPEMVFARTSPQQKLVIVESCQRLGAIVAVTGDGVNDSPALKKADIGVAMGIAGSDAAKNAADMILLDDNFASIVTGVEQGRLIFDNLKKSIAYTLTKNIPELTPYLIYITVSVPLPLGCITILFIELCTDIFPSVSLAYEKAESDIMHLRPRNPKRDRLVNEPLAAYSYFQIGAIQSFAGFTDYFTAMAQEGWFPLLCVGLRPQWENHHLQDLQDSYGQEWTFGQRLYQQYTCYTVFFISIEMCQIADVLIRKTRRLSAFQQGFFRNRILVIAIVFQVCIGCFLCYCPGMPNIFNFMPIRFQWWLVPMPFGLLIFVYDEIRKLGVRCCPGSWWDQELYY
T1 sequence (P18434 whole entry partner): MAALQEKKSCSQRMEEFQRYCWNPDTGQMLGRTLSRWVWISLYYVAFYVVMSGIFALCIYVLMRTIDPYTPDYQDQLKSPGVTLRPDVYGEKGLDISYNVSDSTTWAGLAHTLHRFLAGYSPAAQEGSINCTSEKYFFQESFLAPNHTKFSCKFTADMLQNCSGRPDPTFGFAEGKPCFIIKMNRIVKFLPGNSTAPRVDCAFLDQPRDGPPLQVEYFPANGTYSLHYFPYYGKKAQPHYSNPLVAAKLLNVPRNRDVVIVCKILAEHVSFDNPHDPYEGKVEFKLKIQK

What is called IC50 is the midpoint of a concentration-inhibition curve. With `CNCc1cn(S(=O)(=O)c2cccnc2)c2cc(Cc3ccc(C(F)(F)F)cc3Cl)ccc12` [Example 276, 1-(6-(2-chloro-4-(trifluoromethyl)benzyl)-1-(pyridin-3-ylsulfonyl)-1H-indol-3-yl)-N-methylmethanamine hydrochloride], the IC50 came out at 670 nM. In other words, the sub-micromolar range.

The molecule `CNCc1cn(S(=O)(=O)c2cccnc2)c2cc(Cc3ccc(OC)cc3F)ccc12` [Example 277, 1-(6-(2-fluoro-4-methoxybenzyl)-1-(pyridin-3-ylsulfonyl)-1H-indol-3-yl)-N-methylmethanamine hydrochloride] returned an IC50 of 760 nM.

`CNCc1cn(S(=O)(=O)c2cccnc2)c2cc(Cc3ccc(OC(F)(F)F)cc3C)ccc12` [Example 278, N-methyl-1-(6-(2-methyl-4-(trifluoromethoxy)benzyl)-1-(pyridin-3-ylsulfonyl)-1H-indol-3-yl)methanamine hydrochloride] came in with an IC50 of 1970 nM.

For the molecule `CNCc1cn(S(=O)(=O)c2cccnc2)c2cc(Cc3ccc(OC(F)(F)F)cc3F)ccc12` [Example 279, 1-(6-(2-fluoro-4-(trifluoromethoxy)benzyl)-1-(pyridin-3-ylsulfonyl)-1H-indol-3-yl)-N-methylmethanamine hydrochloride], inhibition was half-maximal at 2190 nM (IC50).

In turn, `CNCc1cn(S(=O)(=O)c2cccnc2)c2cc(Cc3ccc(OC(F)(F)F)cc3Cl)ccc12` [Example 280, 1-(6-(2-chloro-4-(trifluoromethoxy)benzyl)-1-(pyridin-3-ylsulfonyl)-1H-indol-3-yl)-N-methylmethanamine hydrochloride] registered an IC50 of 860 nM.

`CNCc1cn(S(=O)(=O)c2cccnc2)c2cc(Cc3ccc(OC(F)(F)F)cc3OC)ccc12` [Example 281, 1-(6-(2-methoxy-4-(trifluoromethoxy)benzyl)-1-(pyridin-3-ylsulfonyl)-1H-indol-3-yl)-N-methylmethanamine hydrochloride]: the IC50 amounted to 1870 nM. This IC50 is about 2.2-fold higher than that of the molecule before.

`CNCc1cn(S(=O)(=O)c2cccnc2)c2cc(Cc3cccnc3OC)ccc12` [Example 282, 1-(6-((2-methoxypyridin-3-yl)methyl)-1-(pyridin-3-ylsulfonyl)-1H-indol-3-yl)-N-methylmethanamine hydrochloride] registered an IC50 of 2920 nM.

Molecule `CNCc1cn(S(=O)(=O)c2cccnc2)c2cc(Cc3ccc(C)nc3F)ccc12` [Example 283, 1-(6-((2-fluoro-6-methylpyridin-3-yl)methyl)-1-(pyridin-3-ylsulfonyl)-1H-indol-3-yl)-N-methylmethanamine hydrochloride] gave an IC50 of 2630 nM.

`CNCc1cn(S(=O)(=O)c2cccnc2)c2cc(Cc3ccc(C)nc3Cl)ccc12` [Example 284, 1-(6-((2-chloro-6-methylpyridin-3-yl)methyl)-1-(pyridin-3-ylsulfonyl)-1H-indol-3-yl)-N-methylmethanamine hydrochloride]: half-maximal inhibition (IC50) was put at 1010 nM.

In turn, `CNCc1cn(S(=O)(=O)c2cccnc2)c2cc(Cc3ccc(Cl)nc3Cl)ccc12` [Example 285, 1-(6-((2,6-dichloropyridin-3-yl)methyl)-1-(pyridin-3-ylsulfonyl)-1H-indol-3-yl)-N-methylmethanamine hydrochloride] gave a half-maximal inhibitory concentration (IC50) of 650 nM.

`CNCc1cn(S(=O)(=O)c2cccc(F)c2)c2cc(Cc3ccc(C)c(F)c3F)ccc12` [Example 287, 1-(6-(2,3-difluoro-4-methylbenzyl)-1-((3-fluorophenyl)sulfonyl)-1H-indol-3-yl)-N-methylmethanamine] returned an IC50 of 1670 nM.

With `CNCc1cn(S(=O)(=O)c2cccc(C(F)(F)F)c2)c2cc(Cc3ccc(C)c(F)c3F)ccc12` [Example 288, 1-(6-(2,3-difluoro-4-methylbenzyl)-1-((3-(trifluoromethyl)phenyl)sulfonyl)-1H-indol-3-yl)-N-methylmethanamine], it took 1450 nM to reach half-maximal inhibition (IC50).

For the molecule `CNCc1cn(S(=O)(=O)c2cccc(OC)c2)c2cc(Cc3ccc(C)c(F)c3F)ccc12` [Example 289, 1-(6-(2,3-difluoro-4-methylbenzyl)-1-((3-methoxyphenyl)sulfonyl)-1H-indol-3-yl)-N-methylmethanamine], the midpoint of inhibition, the IC50, lay at 780 nM.

With `CNCc1cn(S(=O)(=O)c2cccc(OC(F)F)c2)c2cc(Cc3ccc(C)c(F)c3F)ccc12` [Example 290, 1-(6-(2,3-difluoro-4-methylbenzyl)-1-((3-(difluoromethoxy)phenyl)sulfonyl)-1H-indol-3-yl)-N-methylmethanamine], the IC50 was found to be 930 nM.

In turn, `CNCc1cn(S(=O)(=O)c2cccnc2)c2cc(Cc3ccc(OC)nc3Cl)ccc12` [Example 291, 1-(6-((2-chloro-6-methoxypyridin-3-yl)methyl)-1-(pyridin-3-ylsulfonyl)-1H-indol-3-yl)-N-methylmethanamine hydrochloride] gave an IC50 of 660 nM.

As for `CNCc1cn(S(=O)(=O)c2cccc(F)c2)c2cc(Cc3ccc(OC)nc3Cl)ccc12` [Example 292, 1-(6-((2-chloro-6-methoxypyridin-3-yl)methyl)-1-((3-fluorophenyl)sulfonyl)-1H-indol-3-yl)-N-methylmethanamine hydrochloride], the IC50 was found to be 640 nM.

The molecule `CNCc1cn(S(=O)(=O)c2cccc(Cl)c2)c2cc(Cc3ccc(OC)nc3Cl)ccc12` [Example 293, 1-(6-((2-chloro-6-methoxypyridin-3-yl)methyl)-1-((3-chlorophenyl)sulfonyl)-1H-indol-3-yl)-N-methylmethanamine] returned an IC50 of 550 nM.

`CNCc1cn(S(=O)(=O)c2cccc(C(F)(F)F)c2)c2cc(Cc3ccc(OC)nc3Cl)ccc12` [Example 294, 1-(6-((2-chloro-6-methoxypyridin-3-yl)methyl)-1-((3-(trifluoromethyl)phenyl)sulfonyl)-1H-indol-3-yl)-N-methylmethanamine hydrochloride] came in with an IC50 of 630 nM.

Molecule `CNCc1cn(S(=O)(=O)c2cccc(OC)c2)c2cc(Cc3ccc(OC)nc3Cl)ccc12` [Example 295, 1-(6-((2-chloro-6-methoxypyridin-3-yl)methyl)-1-((3-methoxyphenyl)sulfonyl)-1H-indol-3-yl)-N-methylmethanamine] registered an IC50 of 920 nM.

For the molecule `CNCc1cn(S(=O)(=O)c2cccc(OC(F)F)c2)c2cc(Cc3ccc(OC)nc3Cl)ccc12` [Example 296, 1-(6-((2-chloro-6-methoxypyridin-3-yl)methyl)-1-((3-(difluoromethoxy)phenyl)sulfonyl)-1H-indol-3-yl)-N-methylmethanamine], half-maximal inhibition (IC50) required 930 nM.

In turn, `CNCc1cn(S(=O)(=O)c2cccc(OC(F)(F)F)c2)c2cc(Cc3ccc(OC)nc3Cl)ccc12` [Example 297, 1-(6-((2-chloro-6-methoxypyridin-3-yl)methyl)-1-((3-(trifluoromethoxy)phenyl)sulfonyl)-1H-indol-3-yl)-N-methylmethanamine] yielded an IC50 of 1190 nM.

`CNCc1cn(S(=O)(=O)c2ccc(OC(F)F)cc2)c2cc(Cc3ccc(OC)nc3Cl)ccc12` [Example 298, 1-(6-((2-chloro-6-methoxypyridin-3-yl)methyl)-1-((4-(difluoromethoxy)phenyl)sulfonyl)-1H-indol-3-yl)-N-methylmethanamine] had an IC50 of 3600 nM.

Take `CNCc1cn(S(=O)(=O)c2cccc(F)c2)c2cc(Cc3ccc(C)cc3Cl)ccc12` [Example 299, 1-(6-(2-chloro-4-methylbenzyl)-1-((3-fluorophenyl)sulfonyl)-1H-indol-3-yl)-N-methylmethanamine]: the IC50 stood at 270 nM.
